Experimental data published in patent publication US20050187240A1, “Aaptamine and isoaaptamine and structural modifications thereof” (The Arizona Board of Regents, Acting for and on behalf of …, priority 2004, published 2005).
Values after ≈ are worked out from the molar mass of the structure shown. Structures can show the parent of a compound that is named as a salt. Where two headings read alike, the source gives them in different places.

Tests used:
[1] = tested on: murine P388 lymphocytic leukemia cell line; assay: Cancer cell growth inhibition, murine P388 lymphocytic leukemia cell line; type: cell-based; details: for IC50: Mus musculus; for P388 ED50: murine P388
Source text: (§1) Evaluation of demethyloxyaaptamine (3), aaptamine (1), isoaaptamine (2) and hystatin 1 (11) against the Arizona State University Cancer Research Institute's human tumor cell line panel (Table 1) and the NCI 60-cell line human tumor screen were undertaken. (Boyd, M. R., Cancer: Principles and Practices of Oncology Updates; DeVita, et al., Eds; Lippincott: Philadelphia, 1989, Vol. 10, No. 3, pp. 1-12; Boyd, et al., Drug Development Research 1995, 34, 91-109; Boyd, M. R., et al. Cytotoxic Anticancer Drugs: Models and Concepts for Drug Discovery and Development; Valeriote, A., et al., Eds, Kluwer Academic Publishers: Amsterdam, 1992, pp. 11-34.)
(§2) Biology The cancer cell growth inhibitory properties were examined using the murine P388 lymphocytic leukemia cell line and a selection of human cancer cell lines.
(§3) All of the synthetic products were evaluated against a minipanel of human cancer cell lines, the murine P388 lymphocytic leukemia cell line and a selection of microorganisms.

lung NCI-H460 = assay: Cancer cell growth inhibition, lung NCI-H460; type: cell-based, human; details: Homo sapiens, lung NCI-H460
Source text: as §1, §2, §3

colon KM 20L2 = assay: Cancer cell growth inhibition, colon KM 20L2; type: cell-based, human; details: Homo sapiens, colon KM 20L2
Source text: as §1, §2, §3

pancreas BXPC-3 = assay: Cancer cell growth inhibition, pancreas BXPC-3; type: cell-based, human; details: Homo sapiens, pancreas BXPC-3
Description: as §2, §3

breast MCF-7 = assay: Cancer cell growth inhibition, breast MCF-7; type: cell-based, human; details: Homo sapiens, MCF7, breast MCF-7
Description: as §2, §3

CNS SF-268 = assay: Cancer cell growth inhibition, CNS SF-268; type: cell-based, human; details: Homo sapiens, CNS SF-268
Description: as §2, §3

prostrate DU-145 = assay: Cancer cell growth inhibition, prostate DU-145; type: cell-based, human; details: Homo sapiens
Description: as §2, §3

Cryptococcus neoformans = assay: Broth microdilution susceptibility assay, Cryptococcus neoformans; type: cell-based; details: for MIC: Table 4, read-out: Range of minimum inhibitory concentration; for Range of minimum inhibitory concentration: Table 6
Candida albicans = assay: Broth microdilution susceptibility assay, Candida albicans; type: cell-based; details: for MIC: Table 4, read-out: Range of minimum inhibitory concentration; for Range of minimum inhibitory concentration: Table 6
Staphylococcus aureus = assay: Broth microdilution susceptibility assay, Staphylococcus aureus; type: cell-based; details: for MIC: Table 4, read-out: Range of minimum inhibitory concentration; for Range of minimum inhibitory concentration: Table 6
Streptococcus pneumoniae = assay: Broth microdilution susceptibility assay, Streptococcus pneumoniae; type: cell-based; details: for MIC: Table 4, read-out: Range of minimum inhibitory concentration; for Range of minimum inhibitory concentration: Table 6
Enterococcus faecalis = assay: Broth microdilution susceptibility assay, Enterococcus faecalis; type: cell-based; details: for MIC: Table 4, read-out: Range of minimum inhibitory concentration
Micrococcus luteus = assay: Broth microdilution susceptibility assay, Micrococcus luteus; type: cell-based; details: for MIC: Table 4, read-out: Range of minimum inhibitory concentration; for Range of minimum inhibitory concentration: Table 6
Escherichia coli = assay: Broth microdilution susceptibility assay, Escherichia coli; type: cell-based; details: for MIC: Table 4, read-out: Range of minimum inhibitory concentration; for Range of minimum inhibitory concentration: Table 6
Enterobacter cloacae = assay: Broth microdilution susceptibility assay, Enterobacter cloacae; type: cell-based; details: for MIC: Table 4, read-out: Range of minimum inhibitory concentration
[2] = tested on: Stenotrophomonas maltophilia; assay: Broth microdilution susceptibility assay, Stenotrophomonas maltophilia; type: cell-based; details: for MIC: Table 4, Stenotrophomonas maltophil, read-out: Range of minimum inhibitory concentration; for Range of minimum inhibitory concentration: Table 6
Neisseria gonorrhoeae = assay: Broth microdilution susceptibility assay, Neisseria gonorrhoeae; type: cell-based; details: for MIC: Table 4, read-out: Range of minimum inhibitory concentration; for Range of minimum inhibitory concentration: Table 6
PKC alpha = PKC alpha (Homo sapiens, UniProt P17252); assay: Inhibition of PKC catalytic activity (peptide substrate phosphorylation); type: biochemical; details: 30 μM compound; 1 μM phorbol 12-myristate 13-acetate, 100 μg/ml phospholipid; mean±SEM, three experiments; read-out: percent inhibition of PKC catalytic activity
Source text: We further evaluated the ability of the derivatives to inhibit PKC catalytic activity. […] Inhibition by 10c was 19.5±7.6% and inhibition by 4, 5, and 9a, b, c was 6% or less (all values are mean±SEM, three experiments). […] In both cases, the inhibition curves were steeper than predicted for a competitive inhibitor, consistent with a complicated mechanism of action (Hill coefficients for 10a and 10b of 1.5±0.1 and 2.0±0.5, respectively).

[3] = P388, Table 3, leukemia P-388, read-out: Cancer cell growth inhibitory ED50
[4] = Table 5, leukemia P388, read-out: Cancer Cell Line Results ED50
[5] = Table 3, read-out: Cancer cell growth inhibitory ED50
[6] = Table 5, read-out: Cancer Cell Line Results ED50
[7] = DU-145, Table 5, prostate DRU-145, read-out: Cancer Cell Line Results ED50
[8] = Table 3, prostrate DU-145, read-out: Cancer cell growth inhibitory ED50

Oc1cc2ccnc3c2c(c1O)NC=C3 (as salt: hydrobromid) [Compound 15, 8,9-Dihydroxy-1H-Benzo[de][1,6]naphthyridine hydrobromide]
melting point: 245 to 248 °C (dec.)

COc1cc2c3c(cc[n+](C)c3c1OC)N(C)C=C2.[I-] [Compound 5, 1,4-Dimethyl-8,9-dimethoxy-4H-benzo-[de][1,6]naphthyridin-1-ium iodide]
IC50 [1, 3]: 3.9 µg/mL | IC50 [1, 4]: 3.89 µg/mL | P388 ED50 [1]: 3.9 µg/mL | IC50 (lung NCI-H460; [5]): > 10 µg/mL | IC50 (lung NCI-H460; [6]): > 10 µg/mL | IC50 (colon KM 20L2; [5]): 6.1 µg/mL | IC50 (colon KM 20L2; [6]): 6.1 µg/mL | IC50 (pancreas BXPC-3; [5]): 7.1 µg/mL | IC50 (pancreas BXPC-3; [6]): 7.1 µg/mL | IC50 (breast MCF-7; [5]): 4.9 µg/mL | IC50 (breast MCF-7; [6]): 4.9 µg/mL | IC50 (CNS SF-268; [5]): 0.69 µg/mL | IC50 (CNS SF-268; [6]): 0.69 µg/mL | IC50 (prostrate DU-145; [7]): 3.5 µg/mL | IC50 (prostrate DU-145; [8]): 3.5 µg/mL | MIC (Cryptococcus neoformans): > 64 µg/mL | MIC (Candida albicans): > 64 µg/mL | MIC (Staphylococcus aureus): > 64 µg/mL | MIC (Streptococcus pneumoniae): > 64 µg/mL | MIC (Enterococcus faecalis): > 64 µg/mL | MIC (Micrococcus luteus): 16 to 32 µg/mL | MIC (Escherichia coli): > 64 µg/mL | MIC (Enterobacter cloacae): > 64 µg/mL | MIC [2]: > 64 µg/mL | MIC (Neisseria gonorrhoeae): > 64 µg/mL | inhibition at 30 µM (PKC alpha): ≤ 6%

COc1cc2c3c(ccnc3c1O)N(C)C=C2 [Compound 8, 4-Methyl-8-methoxy-9-hydroxy-4H-benzo[de][1,6]naphthyridine]
IC50 [1, 3]: > 10 µg/mL | IC50 (lung NCI-H460; [5]): > 10 µg/mL | IC50 (colon KM 20L2; [5]): > 10 µg/mL | IC50 (pancreas BXPC-3; [5]): > 10 µg/mL | IC50 (breast MCF-7; [5]): > 10 µg/mL | IC50 (CNS SF-268; [5]): > 10 µg/mL | IC50 (prostrate DU-145; [8]): > 10 µg/mL | MIC (Cryptococcus neoformans): > 64 µg/mL | MIC (Candida albicans): > 64 µg/mL | MIC (Staphylococcus aureus): > 64 µg/mL | MIC (Streptococcus pneumoniae): > 64 µg/mL | MIC (Enterococcus faecalis): > 64 µg/mL | MIC (Micrococcus luteus): > 64 µg/mL | MIC (Escherichia coli): > 64 µg/mL | MIC (Enterobacter cloacae): > 64 µg/mL | MIC [2]: > 64 µg/mL | MIC (Neisseria gonorrhoeae): 4 µg/mL (≈ 17.5 µM)

COc1cc(CN2C=Cc3cc(OC)c(OC)c4nccc2c34)cc(OC)c1OC.Cl [Compound 9c, 8,9-Dimethoxy-4-(3,4,5-trimethoxybenzyl)-4H-benzo[de][1,6]naphthyridine hydrochloride]
IC50 [1, 4]: 4.64 µg/mL | IC50 (lung NCI-H460; [6]): > 10 µg/mL | IC50 (colon KM 20L2; [6]): 3.4 µg/mL | IC50 (pancreas BXPC-3; [6]): > 10 µg/mL | IC50 (breast MCF-7; [6]): > 10 µg/mL | IC50 (CNS SF-268; [6]): > 10 µg/mL | IC50 (prostrate DU-145; [7]): > 10 µg/mL | Range of minimum inhibitory concentration (Cryptococcus neoformans): * (no inhibition at 64 μg/mL) | Range of minimum inhibitory concentration (Candida albicans): * (no inhibition at 64 μg/mL) | Range of minimum inhibitory concentration (Staphylococcus aureus): * (no inhibition at 64 μg/mL) | Range of minimum inhibitory concentration (Streptococcus pneumoniae): * (no inhibition at 64 μg/mL) | Range of minimum inhibitory concentration (Micrococcus luteus): * (no inhibition at 64 μg/mL) | Range of minimum inhibitory concentration (Escherichia coli): * (no inhibition at 64 μg/mL) | Range of minimum inhibitory concentration [2]: * (no inhibition at 64 μg/mL) | Range of minimum inhibitory concentration (Neisseria gonorrhoeae): 64 µg/mL | inhibition at 30 µM (PKC alpha): ≤ 6% | melting point: 198 to 200 °C (dec.)

COc1cc(CN2C=Cc3cc(OC)c(OC)c4c3c2cc[n+]4Cc2cc(OC)c(OC)c(OC)c2)cc(OC)c1OC.[Br-] [Compound 10c, 8,9-Dimethoxy-1,4-bis-(3,4,5-trimethoxy-benzyl)-4H-benzo[de][1,6]-naphthyridin-1-ium bromide]
IC50 [1, 4]: > 10 µg/mL | IC50 (lung NCI-H460; [6]): > 10 µg/mL | IC50 (colon KM 20L2; [6]): > 10 µg/mL | IC50 (pancreas BXPC-3; [6]): > 10 µg/mL | IC50 (breast MCF-7; [6]): > 10 µg/mL | IC50 (CNS SF-268; [6]): > 10 µg/mL | IC50 (prostrate DU-145; [7]): > 10 µg/mL | Range of minimum inhibitory concentration (Cryptococcus neoformans): * (no inhibition at 64 μg/mL) | Range of minimum inhibitory concentration (Candida albicans): * (no inhibition at 64 μg/mL) | Range of minimum inhibitory concentration (Staphylococcus aureus): * (no inhibition at 64 μg/mL) | Range of minimum inhibitory concentration (Streptococcus pneumoniae): * (no inhibition at 64 μg/mL) | Range of minimum inhibitory concentration (Enterococcus faecalis; Table 6): * (no inhibition at 64 μg/mL) | Range of minimum inhibitory concentration (Micrococcus luteus): 64 µg/mL | Range of minimum inhibitory concentration (Escherichia coli): * (no inhibition at 64 μg/mL) | Range of minimum inhibitory concentration (Enterobacter cloacae; Table 6): * (no inhibition at 64 μg/mL) | Range of minimum inhibitory concentration [2]: * (no inhibition at 64 μg/mL) | Range of minimum inhibitory concentration (Neisseria gonorrhoeae): * (no inhibition at 64 μg/mL) | inhibition at 30 µM (PKC alpha): 19.5 ± 7.6% | melting point: 116 to 118 °C

COC1=Cc2ccnc3ccnc(c23)C1(OC)OC [Compound 12]
P388 ED50 [1]: 59 µg/mL

COc1ccc(CN2C=Cc3cc(OC)c(OC)c4c3c2cc[n+]4C)cc1.[I-] [Compound 17, 1-Methyl-4-(4-methoxybenzyl)-8,9-dimethoxy-4H-benzo[de][1,6]-naphthyridin-1-ium iodide]
IC50 [1, 3]: 3.1 µg/mL | IC50 (lung NCI-H460; [5]): 4.6 µg/mL | IC50 (colon KM 20L2; [5]): 5.4 µg/mL | IC50 (pancreas BXPC-3; [5]): 7 µg/mL | IC50 (breast MCF-7; [5]): 8 µg/mL | IC50 (CNS SF-268; [5]): 5.9 µg/mL | IC50 (prostrate DU-145; [8]): 7.5 µg/mL | MIC (Cryptococcus neoformans): > 64 µg/mL | MIC (Candida albicans): > 64 µg/mL | MIC (Staphylococcus aureus): > 64 µg/mL | MIC (Streptococcus pneumoniae): > 64 µg/mL | MIC (Enterococcus faecalis): > 64 µg/mL | MIC (Micrococcus luteus): 4 to 8 µg/mL | MIC (Escherichia coli): > 64 µg/mL | MIC (Enterobacter cloacae): > 64 µg/mL | MIC [2]: > 64 µg/mL | MIC (Neisseria gonorrhoeae): 64 µg/mL
